Results on two molecules are retold here after patent US11298348B2, “Combination treatment of sarcoglycanopathies” (INSERM (INSTITUT NATIONAL DE LA SANTE ET DE LA RECHERCHE …, priority 2018, dated 2022).

Each structure is given as a SMILES string.

Assay [1] deals with T1, R77C-α-SG (Homo sapiens, UniProt Q16586, R77C).
T1 construct: The full-length cDNA encoding human α-sarcoglycan cloned in the pcDNA3 mammalian expression vector; expressed in transfected cells; host or cells: βγδ-cells (HER911 cells stably expressing β-, γ- and δ-sarcoglycan)
T1 sequence (Q16586 24-387 R77C): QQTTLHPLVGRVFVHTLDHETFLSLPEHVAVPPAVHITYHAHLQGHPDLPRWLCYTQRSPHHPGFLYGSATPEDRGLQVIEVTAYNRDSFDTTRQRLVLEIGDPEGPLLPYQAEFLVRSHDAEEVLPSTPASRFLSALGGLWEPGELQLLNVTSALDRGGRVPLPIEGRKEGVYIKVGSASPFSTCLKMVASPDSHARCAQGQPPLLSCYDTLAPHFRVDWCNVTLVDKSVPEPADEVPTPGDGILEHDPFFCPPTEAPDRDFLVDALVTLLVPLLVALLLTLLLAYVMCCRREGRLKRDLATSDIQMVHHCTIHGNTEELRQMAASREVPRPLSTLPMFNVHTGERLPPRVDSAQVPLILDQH
Description: Western blot and densitometry of α-SG content in βγδ-cells transiently expressing R77C-α-SG. Format: cell-based. The note with it: single corrector, C17 10 μM or C4 5 μM, 24 hours. The procedure:
(§1) For transient expression, HEK 293 cells were seeded at 50,000 cells/cm2 and transfected the day after with Transit293 (MirusBio) according to manufacturer's instruction. Twenty-four hours after transfection, medium was replaced with DMEM supplemented with 2% FBS containing the indicated concentration of correctors (dissolved in DMSO) or with DMSO alone (final DMSO concentration 0.1%). HER911 or βγδ-cells cells were seeded at 50,000 cells/cm2 and transfected the day after with 9 μl of Fugene HD Transfection Reagent (E2312 from Promega) and 3 μg of plasmid coding for wild type or mutated α-SG. MG132 was added 8 hours before cell lysis, CFTR correctors were added 24 hours before cell lysis or IF assay (transfected HEK293, V247M cells, HER911 and βγδ-cells) and 24-96 hours before myotubes lysis, treatment with CHX or IF assay.
After treatments, cells were washed twice with ice cold PBS and lysed with 5% sodium deoxycholate supplemented with complete protease inhibitor (Sigma-Aldrich).
Protein lysates were quantified by the bicinchoninic-acid protein assay kit (Thermo Scientific), according to manufacturer's instructions. […] After 1-hour incubation with donkey anti-rabbit IRDye680 and anti-mouse IRDye800 antibodies (EuroBio) at room temperature, proteins were detected by fluorescence in an Odissey imaging system (Li-Cor) following the manufacturer's instructions. […]
On the technique in general: A western blot detects proteins with antibodies after separation by electrophoresis.

For assay [2], the target named is T1, R77C-α-SG. The experiment in a line: Immunofluorescence of membrane α-SG in intact βγδ-cells expressing R77C-α-SG (confocal, ImageXpress). The format is cell-based. The following applies: single corrector, 24 hours. The procedure:
as §1
Immunofluorescence-confocal analyses were performed either in intact cells (not permeabilized) or in permeabilized cells. For the former condition, cells, grown on polylysine-treated glasses, at the end of treatments were incubated for 30 minutes at 4° C., then gently washed twice with ice-cold PBS and incubated with primary antibodies for 5 hours at 4° C. […]
Quantification of the mean fluorescence intensity of membrane staining of […] transfected with R77C-α-SG was performed by using ImageXpress microscope system (Molecular Devices). […]

On to `COc1ccc(Cl)cc1Nc1nc(-c2sc(NC(=O)c3ccccc3)nc2C)cs1` [C4, N-[2-(5-Chloro-2-methoxy-phenylamino)-4′-methyl-[4,5′]bithiazolyl-2′-yl]-benzamide], for which, at R77C-α-SG [1], the R77C-α-SG protein content result was “three to four-fold increase”. Also, the “localization of rescued R77C-α-SG at the plasma membrane (confocal IF, not-permeabilized cells)” value at R77C-α-SG [2] is listed as “intense cell-surface staining”.

As to `COc1ccc(Cl)cc1Nc1nc(-c2sc(NC(=O)C(C)(C)C)nc2C)cs1` [C17, N-(2-(5-chloro-2-methoxyphenylamino)-4′-methyl-4,5′-bithiazol-2′-yl)pivalamide], at R77C-α-SG [1], the R77C-α-SG protein content entry is on record as “three to four-fold increase”. For the same molecule, the “localization of rescued R77C-α-SG at the plasma membrane (confocal IF, not-permeabilized cells)” value at R77C-α-SG [2] is listed as “intense cell-surface staining”.
